The text below walks through data of patent publication US11191811B2, “Osteocalcin as a treatment for frailty associated with aging” (THE TRUSTEES OF COLUMBIA UNIVERSITY IN THE CITY OF NEW YORK, priority 2014, dated 2021).

The test system of one assay is WT myotubes. The experiment in a line: Gene expression (qPCR) in myotubes treated with Ocn. Type of assay: cell-based, mouse. Here is the method: FIG. 28. Osteocalcin signaling in myofibers favors uptake and oxidation of fatty acids. (A-B) Acylcarnitine levels in muscles and plasma of Gprc6af/f and Gprc6aMck−/− mice, at rest and after a single bout of exercise (n=4-6 per group). (C) OCR in myofibers cultured in KHR buffer containing 3 mM oleic acid. (D) ATP accumulations in muscles of Gprc6af/f and Gprc6aMck−/− mice after a single bout of exercise (n=6 per group). (E) Western blot analysis of HSL phosphorylation (Ser563) in muscles of Gprc6af/f and Gprc6aMck−/− mice after a single bout of exercise. (F-G) Cd36, Fatp1 and Cpt1b expression in WT and Gprc6a−/− myotubes or WT myotubes treated with Ocn (10 ng/ml). (H) Fatp1 expression in muscles of Gprc6af/f; Gprc6aMck−/− and Ocn+/−; Gprc6aMck+/− mice, at rest and after a single bout of exercise (n=4-6 per group). (I) Western blot analysis of FATP1 in muscle of Gprc6af/f and Gprc6aMck−/− mice after exercise. (J) Cd36, Fatp1 and Cpt1b expression in muscles of Creb f/f and CrebMck−/− mice after a single bout of exercise. (K) Western blot analysis of CREB phosphorylation (Ser133) in muscles of Gprc6af/f and Gprc6aMck−/− mice after a single bout of exercise. (L) Performance during endurance exercise of 3 month-old Gprc6aMck+/−; CrebMck+/−, CrebMck+/− and control mice (n=8-13 per group).
Serum osteocalcin, PINP, CTX, and insulin levels were measured using ELISA assays. Blood glucose level was measured using an Accu-Check glucometer. Urine 3-MHT was measured as previously described (Aranibar et al., 2011, Anal. Biochem. 410:84-91). Determination of cAMP accumulation was performed using a commercial kit (R&D). For gene expression, 1 μg of total RNA was reverse transcribed into cDNA. qPCR analyses were performed using a SYBER green master mix (Applied Biosciences) and a CFX-Connect real time PCR (Bio-Rad). Relative expression levels of each gene were normalized to that of Hprt or Gapdh. For in situ hybridization, muscle was frozen in liquid N2-cooled methylbutane. Samples were sectioned at 10 μm using a cryostat. […]
Background: Quantitative PCR measures a nucleic acid by following its amplification.

In the next assay the test system is Osteocalcin−/− mice. The experiment in a line: Bronchoconstriction of Osteocalcin−/− mice, intracerebroventricular infusion. Type of assay: in vivo, mouse. As to conditions: intracerebroventricular infusions in Osteocalcin−/− mice.
The next assay relates to wild type mice. Put plainly: Glucose tolerance test after subcutaneous infusion. As to conditions: 0.3 or 3 ng/hour subcutaneously for 14 days, 120 minutes following glucose injection. The assay is classed as in vivo, mouse. Here is the method: FIG. 2. Osteocalcin subcutaneous infusion increases glucose tolerance in wild-type mice. Wild-type mice were infused subcutaneously with indicated doses of recombinant osteocalcin or PBS for 14 days before receiving a single injection of glucose. Blood glucose was measured thereafter at indicated times.
For glucose tolerance test (GTT), glucose (2 g/kg body weight (BW)) was injected intraperitoneally (IP) after an overnight fast and blood glucose was monitored using blood glucose strips and the Accu-Check glucometer (Roche) at indicated times.
In another in vivo experiment, the effect of uncarboxylated osteocalcin on glucose tolerance was investigated. Wild type mice were infused subcutaneously with either 0.3 or 3 ng/hour doses of recombinant uncarboxylated osteocalcin or PBS for 14 days before receiving a single injection of glucose. Blood glucose was measured thereafter at the indicated times.

The test system of the next assay is Osteocalcin−/− embryos. The experiment in a line: Brain histology, apoptosis and Western blot of Osteocalcin−/− offspring of injected Osteocalcin−/− mothers. Type of assay: in vivo, mouse. Here is the method: FIG. 13. Maternal osteocalcin determines spatial learning and memory in adult offspring. (A-F) DLT (A), EPMT (B), OFT (C), FST (D), TST (E), and MWMT (F) performed in 3-month-old Osteocalcin^−/− mice born from Osteocalcin^−/− mothers injected once a day with vehicle or recombinant uncarboxylated osteocalcin (240 ng/day) during pregnancy compared to WT mice. (G) Surface of the lateral ventricle over brain area (%) of E18.5 hippocampi coronal sections of WT embryos originating from WT mothers and Osteocalcin^−/− embryos originating from osteocalcin-injected Osteocalcin^−/− mothers. (H) Number of apoptotic cells (stained by TUNEL assay) of E18.5 hippocampi coronal sections of WT embryos originating from WT mothers and Osteocalcin^−/− embryos originating from Osteocalcin^−/− mothers injected with osteocalcin (240 ng/day). (I) Cresyl violet, NeuN immunofluorescence, and dentate gyrus area (% versus WT) of WT and Osteocalcin^−/− embryos originating from osteocalcin-injected Osteocalcin^−/− mothers. Scale bars=0.5 mm.
Immunofluorescence of whole adult and embryonic brains was performed on […] coronal cryostat slices of tissue fixed with 4% PFA, embedded in cryomatrix (Tissue-Tek) and stored at −80° C. Sections were allowed to dry at room temperature, post-fixed in 4% PFA followed by permeabilization with 0.1% Triton detergent. After room temperature blocking with donkey serum, sections were incubated with anti-Neun antibody (Millipore) overnight at 4° C. Slides were mounted with Fluorogel (Electron Microscopy Sciences).
Cresyl violet staining to visualize brain morphology was carried out by incubating 20 μm cryosections defatted with 1:1 chloroform:ethanol in cresyl violet acetate (1 g/L) overnight. The stain was differentiated using ethanol and xylene and mounted using DPX mounting medium for histology (Sigma).
To assess apoptosis in WT and Osteocalcin^−/− brains, 20 μm cryostat sections were processed using the APOPTAG® Fluorescein Direct In Situ Apoptosis Detection Kit (Millipore) according to manufacturer's protocol. Images were obtained using Leica DM 4000B, and Image J was used to quantify cell number and intensity of staining.
To further evaluate the importance of maternal osteocalcin for the acquisition of spatial learning and memory in adult offspring, pregnant Osteocalcin^−/− mothers from E0.5 to E18.5 were treated with injections, once a day, of osteocalcin (240 ng/day). Osteocalcin was never injected in these females or their pups after delivery. […] Likewise, the number of apoptotic cells was reduced and the number of NeuN positive cells was increased compared to Osteocalcin^−/− embryos originating from Osteocalcin^−/− mothers that were not injected (FIG. 13I-J).
Background: In western blotting, separated proteins are transferred to a membrane and probed.

Where [1] appears, read: E18.5 embryos, versus embryos of mothers not injected.

As for “uncarboxylated osteocalcin: Recombinant uncarboxylated mouse osteocalcin, bacterially produced, purified on glutathione beads and cleaved from the GST subunit by thrombin (YLGASVPSPDPLEPTREQCELNPACDELSDQYGLKTAYKRIYGITI)”, the “expression of Il6” value in the assay on WT myotubes was “increased”. Moreover, in the assay on WT myotubes (Ocn 10 ng/ml), the “expression of Cpt1b” value is given as “increased” and the “expression of Fatp1” value is listed as “increased”. Besides, the bronchoconstriction entry with Osteocalcin−/− mice is on record as “do not correct”. In the assay with wild type mice, the glucose tolerance result was “increased”. In addition, in the assay on wild type mice (listed as Osteocalcin), the glucose tolerance result is recorded as “increases”. Also, the cerebral ventricle enlargement entry with Osteocalcin−/− embryos (E18.5 Osteocalcin−/− embryos, mothers injected 240 ng/day, cresyl violet) is listed as “rescue”. Further, the “Caspase-3 cleaved protein level in the hippocampus” value with Osteocalcin−/− embryos (E18.5 embryos, Western blot, versus mothers not injected) is “decrease”. Besides, in the assay with Osteocalcin−/− embryos (setting [1]), the “number of NeuN positive cells” value is on record as “increased” and the “number of apoptotic cells” value was “reduced”. The “thickness defect in the CA3 and CA4 regions of the hippocampus” value with Osteocalcin−/− embryos (adult Osteocalcin−/− originating from Osteocalcin−/− mothers) is given as “rescue”.
